According to patent US7368453B2, “Quinazolinone compounds with reduced bioaccumulation” (Chiron Corporation, priority 2003, dated 2008):
Where two headings read alike, the source gives them in different places.

Experiment: Tissue half-life (t1/2) and Cmax in plasma, brain, kidney and liver after oral administration to CD-1 mice
Type: in vivo, mouse
Conditions: male, mouse
Description: In vivo studies were conducted to observe the effect of the compounds of the invention in the subject animal. Male CD-1 mice, body weight of 20 grams at arrival, were used in these studies. Mice were given 30 mg/kg of compound in HPMC/Tween solution or suspension via oral gavage. Plasma, brain, and liver samples were collected at time periods of 1, 2, 4, 8, and 24 hours post dosing. One mouse was used per time point. Thus, a total of 5 mice were used for each compound tested. For sample collection, mice were euthanized with CO2. Blood samples were taken by cardiac puncture and kept on ice. Brain and liver samples were collected immediately after bleeding and the samples were kept on dry ice. For calculation of tissue half-lives (t1/2s), the terminal rate constant k was estimated by the absolute value of the slope of a log-linear regression of the terminal phase of the tissue concentration-time profile. The tissue half-life t1/2 is ln(2)/k.
The following table includes t1/2 data for plasma, brain, kidney, and liver obtained after oral administration.
Tissue Half-Life Data for Various Quinazolinone Compounds (PO)

[1] = brain t1/2, 30 mg/kg oral gavage (PO), read-out: Half-Lives (h) Brain (converted)
[2] = liver t1/2, 30 mg/kg oral gavage (PO), read-out: Half-Lives (h) Liver (converted)
[3] = plasma t1/2, 30 mg/kg oral gavage (PO), read-out: Half-Lives (h) Plasma (converted)

Work on `COc1ccc(CCn2c(-c3cccnc3)nc3cc(NC(=N[C@H]4C[C@H]5C[C@@H]([C@@H]4C)C5(C)C)N4CC(=O)N[C@@H](C)C4)ccc3c2=O)c(F)c1` [Example 216, (3S)-N-{3-[2-(2-fluoro-4-methoxyphenyl)ethyl]-4-oxo-2-pyridin-3-yl-3,4-dihydroquinazolin-7-yl}-3-methyl-5-oxo-N′-[(1S,2S,3S,5R)-2,6,6-trimethylbicyclo[3.1.1]hept-3-yl]piperazine-1-carboximidamide] yielded a half-life [1] of 14 h, a half-life (kidney t1/2, 30 mg/kg oral gavage (PO), read-out: Half-Lives (h) Kidney (converted)) of 2.7 h and a half-life [2] of 2.1 h. It also gave a half-life [3] of 1.9 h.
In the case of `C[C@@H]1[C@@H](N=C(Nc2ccc3c(=O)n(CCc4ccc(F)cc4)c(-c4cnccn4)nc3c2)N2CC(=O)N[C@@H](C)C2)C[C@H]2C[C@@H]1C2(C)C` [Example 218, (3S)-N-{3-[2-(4-fluorophenyl)ethyl]-4-oxo-2-pyrazin-2-yl-3,4-dihydroquinazolin-7-yl}-3-methyl-5-oxo-N′-[(1S,2S,3S,5R)-2,6,6-trimethylbicyclo[3.1.1]hept-3-yl]piperazine-1-carboximidamide], the half-life [2] was 3.9 h and the half-life [3] was 2.2 h.
Molecule `COc1ccc(CCn2c(-c3cccnc3)nc3cc(NC(=N[C@H]4C[C@H]5C[C@@H]([C@@H]4C)C5(C)C)N4CCN[C@@H](C(F)F)C4)ccc3c2=O)c(F)c1` [Example 220, (3R)-3-(difluoromethyl)-N-{3-[2-(2-fluoro-4-methoxyphenyl)ethyl]-4-oxo-2-pyridin-3-yl-3,4-dihydroquinazolin-7-yl}-N′-[(1S,2S,3S,5R)-2,6,6-trimethylbicyclo[3.1.1]hept-3-yl]piperazine-1-carboximidamide] has a half-life [1] of 3.1 h, a half-life [2] of 2.5 h and a half-life [3] of 2.1 h.
In the case of `COc1ccc(CCn2c(N3CCOCC3)nc3cc(NC(=N[C@H]4C[C@H]5C[C@@H]([C@@H]4C)C5(C)C)N4CC(=O)N[C@@H](C)C4)ccc3c2=O)c(F)c1` [Example 221, (3S)-N-{3-[2-(2-fluoro-4-methoxyphenyl)ethyl]-2-morpholin-4-yl-4-oxo-3,4-dihydroquinazolin-7-yl}-3-methyl-5-oxo-N′-[(1S,2S,3S,5R)-2,6,6-trimethylbicyclo[3.1.1]hept-3-yl]piperazine-1-carboximidamide], the half-life [1] was 6.9 h, the half-life [2] was 2.9 h and the half-life [3] was 2.9 h.
In the case of `C[C@@H]1[C@@H](N=C(Nc2ccc3c(=O)n(CCc4ccc(Cl)cc4)c(-c4cnccn4)nc3c2)N2CC(=O)N[C@@H](C)C2)C[C@H]2C[C@@H]1C2(C)C` [Example 222, (3S)-N-{3-[2-(4-chlorophenyl)ethyl]-4-oxo-2-pyrazin-2-yl-3,4-dihydroquinazolin-7-yl}-3-methyl-5-oxo-N′-[(1S,2S,3S,5R)-2,6,6-trimethylbicyclo[3.1.1]hept-3-yl]piperazine-1-carboximidamide], the half-life [1] was 8 h, the half-life [2] was 2.7 h and the half-life [3] was 1.1 h.
`COc1ccc(CCn2c(NC3CC3)nc3cc(NC(=N[C@H]4C[C@H]5C[C@@H]([C@@H]4C)C5(C)C)N4CC(=O)N[C@@H](C)C4)ccc3c2=O)c(F)c1` [Example 224, (3S)-N-{2-(cyclopropylamino)-3-[2-(2-fluoro-4-methoxyphenyl)ethyl]-4-oxo-3,4-dihydroquinazolin-7-yl}-3-methyl-5-oxo-N′-[(1S,2S,3S,5R)-2,6,6-trimethylbicyclo[3.1.1]hept-3-yl]piperazine-1-carboximidamide] showed a half-life [1] of 10 h, a half-life [2] of 3.1 h and a half-life [3] of 3 h.
With `C[C@@H]1[C@@H](N=C(Nc2ccc3c(=O)n(CCc4ccc(Br)cc4)c(-c4cccnc4)nc3c2)N2CCN[C@@H](C(F)F)C2)C[C@H]2C[C@@H]1C2(C)C` [Example 227, (3R)-N-{3-[2-(4-bromophenyl)ethyl]-4-oxo-2-pyridin-3-yl-3,4-dihydroquinazolin-7-yl}-3-(difluoromethyl)-N′-[(1S,2S,3S,5R)-2,6,6-trimethylbicyclo[3.1.1]hept-3-yl]piperazine-1-carboximidamide] the half-life [2] was 9.4 h and the half-life [3] was 3.9 h.
